One assay relates to KPC PDAC tumors. The assay is described as follows: Bulk modulus (stiffness) by unconfined compression testing of end-point KPC tumors. As to conditions: for tumor bulk modulus (stiffness): end-point KPC tumors; for Bulk modulus (stiffness) by unconfined compression testing: endpoint PDAC tumours, individual tumours. On the set-up: key to Bulk modulus (stiffness) by unconfined compression testing: bulk elastic modulus in kPa. The class given is in vivo, mouse. The procedure:
Fig. 4 PXS-5505 administered in a KPC in vivo survival study. a, Schematic of the KPC in vivo survival study. Presence of a primary tumor in KPC mice was confirmed by two independent researchers (positive diagnosis) before commencement of daily treatment (Tx) on one of four treatment arms as follows: vehicle, 0.9% saline; Gem, twice-weekly gemcitabine (100 mg kg^−1 i.p.); PXS-5505, daily PXS-5505 at 20 mg kg^−1 i.p.; and PXS-5505 + Gem, daily PXS-5505 at 20 mg kg^−1 i.p. + twice-weekly gemcitabine (100 mg kg^−1 i.p.). b, Table of median survival (since diagnosis/commencement of treatment) across the four treatment groups (n = 30 biologically independent animals (vehicle), n = 31 biologically independent animals (Gem), n = 36 biologically independent animals (PXS-5505), n = 46 biologically independent animals (PXS-5505 + Gem)). c, Kaplan–Meier curves for overall survival across treatment arms (n = 30 biologically independent animals (vehicle), n = 31 biologically independent animals (Gem), n = 36 biologically independent animals (PXS-5505), n = 46 biologically independent animals (PXS-5505 + Gem)). P values determined by log-rank (Mantel–Cox) test. d, Representative maximum intensity projections of SHG multiphoton imaging for tumors from each treatment group (n = 1 FOV taken from one biologically independent animal per group) at end point (scale bars, 100 μm) and quantification of SHG peak signal intensity (n = 5 biologically independent animals per group and five FOV per animal). Data are mean ± s.d. […] Quantification of metastases (n = 18 biologically independent animals (vehicle), n = 18 biologically independent animals (Gem), n = 17 biologically independent animals (PXS-5505), n = 15 biologically independent animals (PXS-5505 + Gem)). Data are mean ± s.d.
(§1) Unconfined compression of in vivo tissue samples was carried out on 2–3-mm cross-sectional slices using a TA Instruments Dynamic Hybrid Rheometer (DHR-3, TA Instruments). Tissue samples were placed between upper and lower parallel plate geometries. A constant linear compressive rate of 5 µm s^−1 was applied to the samples and axial force (N) and gap (mm) were collected every 0.01 s. Data were processed and a stress–strain curve for each replicate was obtained. Bulk elastic modulus (kPa) was obtained as the gradient of the linear region of the stress–strain curve corrected for cross-sectional area of sample. Data points represent individual biological replicates.

The test system of another assay is TKCC10 human PDX tumors. The assay is described as follows: TKCC10 human model, bulk modulus by unconfined compression (Extended Data Fig. 5e). The assay is classed as in vivo, mouse. On the set-up: key to Bulk modulus (stiffness) by unconfined compression testing: bulk elastic modulus in kPa. As to conditions: for Bulk modulus (stiffness) by unconfined compression testing: Extended Data 5E, endpoint human PDX tumours, individual animals. The method, then:
as §1
Subcutaneous PDX studies were performed by implanting early passage PDX pieces (~4 mm^3) or TKCC10 CCs (1.5 × 10^6 cells per mouse in 100 μl PBS/Matrigel 1:1) into female (PDX) or male (TKCC10) 8-week-old immunocompromised nude Balb/c-Fox1nuAusb mice subcutaneously on the left flank. For the duration of the study, mice were kept in conventional caging with environmental enrichment, access to standard chow, water ad libitum and 12-h light–dark cycle at ambient temperature and humidity. […] Tumor size was monitored every second day by calipers. Tumor volume was calculated using the formula (length × width^2)/2. […]
Extended Data Fig. 5 PXS-5505 in combination with gemcitabine in vivo. a. […] Signal is defined as the enzyme activity in the aorta, while noise is measured in the presence of a high concentration (300 µM) BAPN to abolish any lysyl oxidase family activity. […] FITC-dextran (molecular weight: 10 kDa) signal quantification from KPC tumor end point from each treatment group (vehicle n = 3 biologically independent animals, PXS-5505 n = 5 biologically independent animals, Gem n = 5 biologically independent animals, PXS-5505 + Gem n = 5 biologically independent animals). […] P-values determined by Welchs t-test. […] Quantification of red birefringent (mature) collagen fibers from human PDXs at end point after 3 cycles of treatment, treated as indicated. […] P values determined by Welchs t-test. g. […]

“And” between values parts separate entries of the source, which are not always exact repeats. Equal entries are not always repeated.

The text below walks through data of paper PMC10518255, “A first-in-class pan-lysyl oxidase inhibitor impairs stromal remodeling and enhances gemcitabine response and survival in pancreatic cancer” (Nature Cancer, 2023).

Take `Cl.Cl.NC/C=C(\F)CS(=O)(=O)c1cccc2cccnc12.O` [PXS-5505, (Z)-3-fluoro-4-(quinolin-8-ylsulfonyl)but-2-en-1-amine dihydrochloride monohydrate]: in the assay on KPC PDAC tumors, the “tumor bulk modulus (stiffness)” value is reported as “moderate reduction in stiffness”; the “Bulk modulus (stiffness) by unconfined compression testing” value is 1.01 and 4.478 and 8.389 and 5.347 and 1.487. Also, the “Bulk modulus (stiffness) by unconfined compression testing” value in the assay on TKCC10 human PDX tumors was 8.16 and 16.78 and 14.19 and 5.55 and 12.49.
For `Nc1ccn([C@@H]2O[C@H](CO)[C@@H](O)C2(F)F)c(=O)n1` [Gem, gemcitabine], in the assay on KPC PDAC tumors, the “tumor bulk modulus (stiffness)” value is 20.0 kPa; the “Bulk modulus (stiffness) by unconfined compression testing” value is 26.381 and 11.231 and 14.142 and 18.28 and 20.014. In the assay with TKCC10 human PDX tumors, the “Bulk modulus (stiffness) by unconfined compression testing” value was 110.51 and 99.1 and 103.39 and 48.75 and 58.11. Besides, in the assay with TKCC10 human PDX tumors (TKCC10 model, three rounds of therapy), the tumor bulk stiffness entry is “significant increase in tumor bulk stiffness”.
